Data taken from US4107424A, “1-N-[(S)-α-hydroxy-ω-aminoacyl] derivatives of 3',4'-dideoxykanamycin B and 3'-deoxykanamycin B antibiotics” (Zaidan Hojin Biseibutsu Kagaku Kenkyu Kai, priority 1972, dated 1978).
In brackets after ≈: the same amount, converted by molar mass. Where two headings read alike, the source gives them in different places.

Columns and labels:
[1] = tested on: Corynebacterium bovis 1810; experiment: Minimum inhibitory concentration, serial dilution method; type: cell-based; conditions: Corynebacterium bovis, 1810, 18 h, read-out: Minimum inhibitory concentrations
[2] = tested on: Staphylococcus aureus Smith; experiment: as above; type: cell-based; conditions: 18 h, read-out: Minimum inhibitory concentrations
Bacillus anthracis = experiment: microbe, parasite or virus in culture; type: cell-based; conditions: 18 h, read-out: Minimum inhibitory concentrations
[3] = tested on: Staphylococcus aureus Terajima; experiment: Minimum inhibitory concentration, serial dilution method; type: cell-based; conditions: 18 h, read-out: Minimum inhibitory concentrations
[4] = tested on: Pseudomonas aeruginosa TI-13; experiment: Minimal inhibitory concentration, agar dilution streak method; type: cell-based; conditions: TI13, nutrient agar, 37° C, 18 hours, read-out: Minimal inhibitory concentration
Method: (§1) *Agar Agar dilution streak method (nutrient agar, 37° C, 18 hours)
(§2) *Agar dilution streak method (nutrient agar, 37° C, 18 hours).

[5] = tested on: Klebsiella pneumoniae type 22 #3038; experiment: as above; type: cell-based; conditions: for MIC: Klebsiella pneumoniae, nutrient agar, 37° C, 18 hours
Method: as §1, §2

[6] = tested on: Escherichia coli K-12 ML 1410 R 81; experiment: as above; type: cell-based; conditions: 18 h, read-out: Minimal inhibitory concentration
Method: as §1, §2

[7] = tested on: Escherichia coli K-12 ML 1630; experiment: as above; type: cell-based; conditions: K12ML1630, nutrient agar, 37° C, 18 hours, read-out: Minimal inhibitory concentration
Method: as §1, §2

[8] = tested on: Pseudomonas aeruginosa No.12; experiment: as above; type: cell-based; conditions: nutrient agar, 37° C, 18 hours, read-out: Minimal inhibitory concentration
Method: as §1, §2

[9] = tested on: Escherichia coli K-12 W 677; experiment: as above; type: cell-based; conditions: K12W677, nutrient agar, 37° C, 18 hours, read-out: Minimal inhibitory concentration
Method: as §1, §2

[10] = tested on: Escherichia coli K-12 LA 290 R 56; experiment: as above; type: cell-based; conditions: 18 h, read-out: Minimal inhibitory concentration
Method: as §1, §2

[11] = tested on: Escherichia coli K-12 ML 1629; experiment: as above; type: cell-based; conditions: K12ML1629, nutrient agar, 37° C, 18 hours, read-out: Minimal inhibitory concentration
Method: as §1, §2

[12] = tested on: Staphylococcus aureus FDA 209P; experiment: as above; type: cell-based; conditions: FDA209P, nutrient agar, 37° C, 18 hours, read-out: Minimal inhibitory concentration
Method: as §1, §2

Escherichia coli K-12 = experiment: as above; type: cell-based; conditions: K12, nutrient agar, 37° C, 18 hours, read-out: Minimal inhibitory concentration
Method: as §1, §2

[13] = tested on: Pseudomonas aeruginosa A 3; experiment: as above; type: cell-based; conditions: A3, nutrient agar, 37° C, 18 hours, read-out: Minimal inhibitory concentration
Method: as §1, §2

[14] = tested on: Escherichia coli K-12 LA 290 R 55; experiment: as above; type: cell-based; conditions: 18 h, read-out: Minimal inhibitory concentration
Method: as §1, §2

[15] = tested on: Pseudomonas aeruginosa GN 315; experiment: as above; type: cell-based; conditions: GN315, nutrient agar, 37° C, 18 hours, read-out: Minimal inhibitory concentration
Method: as §1, §2

[16] = tested on: Escherichia coli K-12 LA 290 R 64; experiment: as above; type: cell-based; conditions: nutrient agar, 37° C, 18 hours, read-out: Minimal inhibitory concentration
Method: as §1, §2

[17] = tested on: Escherichia coli K-12 JR 66/W 677; experiment: as above; type: cell-based; conditions: for MIC: Escherichia coli, 18 h, read-out: Minimal inhibitory concentration
Method: as §1, §2

[18] = tested on: Escherichia coli K-12 ML 1410; experiment: as above; type: cell-based; conditions: K12ML1410, nutrient agar, 37° C, 18 hours, read-out: Minimal inhibitory concentration
Method: as §1, §2

[19] = tested on: Klebsiella pneumoniae PCI 1602; experiment: Minimum inhibitory concentration, serial dilution method; type: cell-based; conditions: PCI1602, 18 h, read-out: Minimum inhibitory concentrations
[20] = tested on: Salmonella enteritidis 1891; experiment: as above; type: cell-based; conditions: Salmonella enterica, nutrient agar, 37° C, 18 hours, read-out: Minimum inhibitory concentrations
[21] = tested on: Shigella flexneri 4b JS 11811; experiment: as above; type: cell-based; conditions: 4BJS11811, nutrient agar, 37° C, 18 hours, read-out: Minimum inhibitory concentrations
[22] = tested on: Bacillus subtilis PCI 219; experiment: as above; type: cell-based; conditions: PCI219, 18 h, read-out: Minimum inhibitory concentrations
Proetus vulgaris OX 19 = experiment: as above; type: cell-based; conditions: nutrient agar, 37° C, 18 hours; read-out: Minimum inhibitory concentrations
Sarcina lutea PCI 1001 = experiment: Minimal inhibitory concentration, agar dilution streak method; type: cell-based; conditions: Micrococcus luteus, read-out: Minimal inhibitory concentration
Method: (§3) [α]D^22 + 38°, (c 0.85, water).
as §1, §2

Salmonella typhosa T-63 = experiment: as above; type: cell-based; conditions: Salmonella enterica, nutrient agar, 37° C, 18 hours
Method: as §3, §1, §2

[23] = tested on: Escherichia coli K-12 R-5; experiment: as above; type: cell-based; conditions: K12R5, nutrient agar, 37° C, 18 hours
Method: as §3, §1, §2

Escherichia coli NIHJ = experiment: as above; type: cell-based; conditions: nutrient agar, 37° C, 18 hours
Method: as §3, §1, §2

[24] = tested on: Pseudomonas aeruginosa 99; experiment: as above; type: cell-based; conditions: nutrient agar, 37° C, 18 hours, read-out: Minimal inhibitory concentration
Method: as §3, §1, §2

[25] = tested on: Shigella dysenteriae JS 11910; experiment: Minimum inhibitory concentration, serial dilution method; type: cell-based; conditions: JS11910, 18 h, read-out: Minimum inhibitory concentrations
[26] = tested on: Bacillus cereus ATCC 10702; experiment: as above; type: cell-based; conditions: ATCC10702, nutrient agar, 37° C, 18 hours, read-out: Minimum inhibitory concentrations
[27] = tested on: Mycobacterium smegmatis ATCC 607; experiment: Minimal inhibitory concentration, agar dilution streak method; type: cell-based; conditions: Mycolicibacterium smegmatis, ATCC607, nutrient agar, 37° C
Shigella sonnei JS 11746 = experiment: Minimum inhibitory concentration, serial dilution method; type: cell-based; conditions: JS11746, nutrient agar, 37° C, 18 hours, read-out: Minimum inhibitory concentrations
[28] = tested on: kanamycin-resistant strains; conditions: cited from earlier work
[29] = tested on: Klebsiella pneumoniae PCI 602; experiment: Minimal inhibitory concentration, agar dilution streak method; type: cell-based; conditions: PCI602, nutrient agar, 37° C, 18 hours
Method: as §3, §1, §2

[30] = tested on: Escherichia coli K-12 C 600 R 135; experiment: as above; type: cell-based; conditions: 18 h, read-out: Minimal inhibitory concentration
Method: as §3, §1, §2

Proteus rettgeri GN 466 = experiment: as above; type: cell-based; conditions: Providencia rettgeri, GN466; nutrient agar, 37° C, 18 hours
Method: as §3, §1, §2

[31] = tested on: Bacillus subtilis NRRL B-558; experiment: as above; type: cell-based; conditions: NRRLB558, nutrient agar, 37° C, 18 hours
Method: as §3, §1, §2

Proteus rettgeri GN 311 = experiment: as above; type: cell-based; conditions: Providencia rettgeri, GN311; nutrient agar, 37° C, 18 hours
Method: as §3, §1, §2

[32] = tested on: Escherichia coli J 5 R 11-2; experiment: as above; type: cell-based; conditions: J5R112, 18 h, read-out: Minimal inhibitory concentration
Method: as §3, §1, §2

[33] = strain resistant to butirosin B

In the case of `NC[C@H]1O[C@H](O[C@H]2[C@H](O)[C@@H](O[C@H]3O[C@H](CO)[C@@H](O)[C@H](N)[C@H]3O)[C@H](N)C[C@@H]2N)[C@H](N)[C@@H](O)[C@@H]1O` [Kanamycin B, kanamycin B], the MIC [1] was 1.56 µg/mL (≈ 3.23 µM), the MIC [2] was < 0.2 µg/mL and the MIC (Bacillus anthracis) was < 0.2 µg/mL. The MIC [3] was < 0.2 µg/mL, the MIC [4] was 100 µg/mL (≈ 207 µM) and the MIC [5] was > 100 µg/mL. For the same compound, the MIC [6] was > 100 µg/mL, the MIC [7] was > 100 µg/mL and the MIC [8] was 12.5 µg/mL (≈ 25.9 µM). The MIC [9] was 0.39 µg/mL (≈ 0.807 µM), the MIC [10] was 3.13 µg/mL (≈ 6.47 µM) and the MIC [11] was > 100 µg/mL. It also gave an MIC [12] of 0.39 µg/mL (≈ 0.807 µM), an MIC (Escherichia coli K-12) of 0.78 µg/mL (≈ 1.61 µM) and an MIC [13] of 50 µg/mL (≈ 103 µM). For the same compound, the MIC [14] was 12.5 µg/mL (≈ 25.9 µM), the MIC [15] was > 100 µg/mL and the MIC [16] was 3.13 µg/mL (≈ 6.47 µM). For the same compound, the MIC [17] was > 100 µg/mL, the MIC [18] was 0.78 µg/mL (≈ 1.61 µM) and the MIC [19] was 0.78 µg/mL (≈ 1.61 µM). For the same compound, the MIC [20] was 1.56 µg/mL (≈ 3.23 µM), the MIC [21] was 3.13 µg/mL (≈ 6.47 µM) and the MIC [22] was < 0.2 µg/mL. For the same compound, the MIC (Proetus vulgaris OX 19) was 0.78 µg/mL (≈ 1.61 µM), the MIC (Sarcina lutea PCI 1001; PCI1001, 18 h) was 1.56 µg/mL (≈ 3.23 µM) and the MIC (Salmonella typhosa T-63) was 0.2 µg/mL (≈ 0.414 µM). The MIC [23] was 1.56 µg/mL (≈ 3.23 µM), the MIC (Escherichia coli NIHJ) was 0.78 µg/mL (≈ 1.61 µM) and the MIC [24] was > 100 µg/mL. It also gave an MIC [25] of 3.13 µg/mL (≈ 6.47 µM), an MIC [26] of 0.78 µg/mL (≈ 1.61 µM) and an MIC ([27]; 18 hours, read-out: Minimum inhibitory concentrations) of 0.78 µg/mL (≈ 1.61 µM). For the same compound, the MIC (Shigella sonnei JS 11746) was 1.56 µg/mL (≈ 3.23 µM).
For `NCC[C@H](O)C(=O)N[C@@H]1C[C@H](N)[C@@H](O[C@H]2O[C@H](CN)[C@@H](O)[C@H](O)[C@H]2N)[C@H](O[C@@H]2O[C@H](CO)[C@@H](O)[C@H]2O)[C@H]1O` [Butirosin B, 1-N-[(S)-α-hydroxy-γ-amino-n-butyryl]-ribostamycin], the MIC [4] was 25 µg/mL (≈ 45 µM), the MIC [5] was > 100 µg/mL and the “effectiveness against Klebsiella pneumoniae type 22 #3038” value [5, 33] was “resistant to butirosin B”. The MIC [6] was 3.12 µg/mL (≈ 5.62 µM), the MIC [7] was 1.56 µg/mL (≈ 2.81 µM) and the MIC [8] was 6.25 µg/mL (≈ 11.2 µM). The MIC [9] was 0.39 µg/mL (≈ 0.702 µM), the MIC [10] was 0.78 µg/mL (≈ 1.4 µM) and the MIC [11] was 1.56 µg/mL (≈ 2.81 µM). The MIC [12] was 1.56 µg/mL (≈ 2.81 µM), the MIC (Escherichia coli K-12) was 0.78 µg/mL (≈ 1.4 µM) and the MIC [13] was 3.12 µg/mL (≈ 5.62 µM). The MIC [14] was 0.78 µg/mL (≈ 1.4 µM), the MIC [15] was > 100 µg/mL and the MIC [16] was 0.78 µg/mL (≈ 1.4 µM). For the same compound, the MIC [17] was > 100 µg/mL, the “effectiveness against Escherichia coli K-12 JR 66/W 677” value [17, 33] was “resistant to butirosin B” and the MIC [18] was 0.78 µg/mL (≈ 1.4 µM). For the same compound, the “activity against kanamycin- and ribostamycin-resistant bacteria” value [28] was “active against some kanamycin- and ribostamycin-resistant bacteria”, the MIC [29] was 0.78 µg/mL (≈ 1.4 µM) and the MIC [30] was 0.78 µg/mL (≈ 1.4 µM). The MIC (Sarcina lutea PCI 1001; PCI1001, nutrient agar, 37° C, 18 hours) was 50 µg/mL (≈ 90 µM), the MIC (Salmonella typhosa T-63) was 0.39 µg/mL (≈ 0.702 µM) and the MIC [23] was 6.25 µg/mL (≈ 11.2 µM). It also gave an MIC (Proteus rettgeri GN 466) of 3.12 µg/mL (≈ 5.62 µM), an MIC (Escherichia coli NIHJ) of 3.12 µg/mL (≈ 5.62 µM) and an MIC [31] of 0.39 µg/mL (≈ 0.702 µM). It also gave an MIC (Proteus rettgeri GN 311) of 6.25 µg/mL (≈ 11.2 µM), an MIC [24] of 50 µg/mL (≈ 90 µM) and an MIC [32] of 1.56 µg/mL (≈ 2.81 µM). It also gave an MIC ([27]; 48 hours, read-out: Minimal inhibitory concentration) of 0.78 µg/mL (≈ 1.4 µM).
